The text below walks through data of patent US5972947A, “Oxazolidinone derivatives, processes for the production thereof and pharmaceutical agents containing these compounds” (Roche Diagnostics GmbH, priority 1995, dated 1999).

Chain of GpIIb/IIIa receptor (P08514 32-887 limits assumed): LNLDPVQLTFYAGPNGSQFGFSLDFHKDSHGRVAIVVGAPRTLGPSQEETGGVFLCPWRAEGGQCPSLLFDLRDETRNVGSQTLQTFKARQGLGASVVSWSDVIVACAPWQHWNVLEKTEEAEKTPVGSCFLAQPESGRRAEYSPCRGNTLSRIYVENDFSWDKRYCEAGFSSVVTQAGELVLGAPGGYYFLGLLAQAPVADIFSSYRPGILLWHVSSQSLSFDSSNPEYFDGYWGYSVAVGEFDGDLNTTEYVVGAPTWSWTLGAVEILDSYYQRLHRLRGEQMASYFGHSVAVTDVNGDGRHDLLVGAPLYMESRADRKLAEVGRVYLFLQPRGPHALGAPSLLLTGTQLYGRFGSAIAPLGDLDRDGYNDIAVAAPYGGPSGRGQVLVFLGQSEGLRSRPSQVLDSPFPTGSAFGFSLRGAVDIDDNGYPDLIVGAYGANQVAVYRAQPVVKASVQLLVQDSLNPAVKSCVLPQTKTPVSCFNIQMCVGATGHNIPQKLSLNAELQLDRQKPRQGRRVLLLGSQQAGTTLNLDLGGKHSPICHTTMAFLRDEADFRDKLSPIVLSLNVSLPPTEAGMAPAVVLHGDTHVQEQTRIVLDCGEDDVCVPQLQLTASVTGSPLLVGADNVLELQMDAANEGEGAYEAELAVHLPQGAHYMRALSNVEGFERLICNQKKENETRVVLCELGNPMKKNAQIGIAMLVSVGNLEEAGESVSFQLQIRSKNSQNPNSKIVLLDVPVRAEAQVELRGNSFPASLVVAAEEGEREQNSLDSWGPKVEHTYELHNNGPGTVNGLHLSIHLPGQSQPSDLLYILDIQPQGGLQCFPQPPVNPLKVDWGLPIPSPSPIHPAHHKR
Chain of GpIIb/IIIa receptor (P08514 891-1039 partner limits assumed): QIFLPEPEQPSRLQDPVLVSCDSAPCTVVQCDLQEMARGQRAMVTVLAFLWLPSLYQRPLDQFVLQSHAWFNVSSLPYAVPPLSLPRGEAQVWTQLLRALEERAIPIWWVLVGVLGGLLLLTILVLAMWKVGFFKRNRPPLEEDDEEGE
Chain of GpIIb/IIIa receptor (P05106 27-788): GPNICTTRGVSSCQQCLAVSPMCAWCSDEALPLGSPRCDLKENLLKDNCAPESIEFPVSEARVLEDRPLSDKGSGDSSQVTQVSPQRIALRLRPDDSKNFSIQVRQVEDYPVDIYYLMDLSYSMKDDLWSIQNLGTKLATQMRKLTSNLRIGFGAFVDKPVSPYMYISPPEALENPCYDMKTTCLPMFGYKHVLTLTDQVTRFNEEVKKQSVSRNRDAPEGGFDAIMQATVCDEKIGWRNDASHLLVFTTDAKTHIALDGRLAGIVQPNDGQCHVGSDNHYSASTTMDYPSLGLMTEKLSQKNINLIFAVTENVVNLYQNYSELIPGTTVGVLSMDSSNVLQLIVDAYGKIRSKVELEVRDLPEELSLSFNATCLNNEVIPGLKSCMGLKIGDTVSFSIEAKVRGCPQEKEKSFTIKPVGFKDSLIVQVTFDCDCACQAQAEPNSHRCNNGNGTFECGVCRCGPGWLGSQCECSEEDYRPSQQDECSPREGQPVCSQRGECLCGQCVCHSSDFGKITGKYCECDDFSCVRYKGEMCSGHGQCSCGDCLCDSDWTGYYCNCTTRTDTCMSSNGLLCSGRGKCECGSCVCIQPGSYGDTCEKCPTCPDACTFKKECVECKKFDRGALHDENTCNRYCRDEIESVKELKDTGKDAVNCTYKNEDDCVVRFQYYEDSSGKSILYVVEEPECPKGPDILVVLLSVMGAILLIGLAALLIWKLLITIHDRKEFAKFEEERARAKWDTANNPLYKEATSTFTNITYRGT

This test concerns the target GpIIb/IIIa receptor (Homo sapiens, UniProt P05106+P08514). As to the kind of experiment: GpIIb/IIIa fibrinogen ELISA (inhibition of the fibrinogen-GpIIb/IIIa interaction). In kind it is binding. The settings on record: isolated activated GpIIb/IIIa receptor coated at 2 μg/ml; fibrinogen ligand, 1 hour incubation; OD at 405 nm. The procedure: Microtitre plates were coated overnight with 2 μg/ml isolated activated GpIIb/IIIa receptor. After the unbound receptor had been removed by several washing steps, the surface of the plate was blocked with 1% casein and washed again. The test substance was added at the necessary concentrations, the plates were subsequently incubated for 10 minutes while shaking in a linear shaker. The natural ligand of the GpIIb/IIIa receptor fibrinogen was added thereto. After incubating for 1 hour, unbound fibrinogen was removed by several washing steps and bound fibrinogen was determined in an ELISA reader by determining the change in optical density at 405 nm caused by a peroxidase conjugated monoclonal antibody. Inhibition of the fibrinogen-GpIIb/IIIa interaction leads to low optical densities. The IC50 value was determined by means of a concentration-effect curve.
The GpIIb/IIIa fibrinogen ELISA is a modification of the assay which is described in the following references:
Nachman, R. L. & Leung, L. L. K. (1982): Complex formation of platelet membrane glycoproteins IIb and IIIa with fibrinogen. J. Clin. Invest. 69: 263-269.
Wright, P. S. et al. […]; An echistatin C-terminal peptide activated GpIIb/IIIa binding to fibrinogen, fibronectin, vitronectin and collagen type I and type IV. Biochem. J. 293: 262-267.
(An ELISA detects its analyte on a solid surface through an enzyme-linked reagent.)
As to `O=C(O)C=C1CCN(CC2CN(C3CCN(c4ccncc4)CC3)C(=O)O2)CC1` (racemic) [Example 3, {1-[(rac)-2-Oxo-3-(3,4,5,6-tetrahydro-2H-[1,4']bipyridinyl-4yl)-oxazolidin-5-ylmethyl]-piperidin-4-ylidene}-acetic acid], half-maximal inhibition (IC50) required 1.4 µM.
Then `O=C(O)C1CCN(CC2OC(=O)N(C3CCN(c4ccncc4)CC3)C2c2ccccc2)CC1` (stereo not drawn) [10 a)], with 0.3 µM; and `CC1C(CN2CCC(C(=O)O)CC2)OC(=O)N1C1CCN(c2ccncc2)CC1` (stereo not drawn) [Example 7, 1-[4-Methyl-2-oxo-3-(3,4,5,6-tetrahydro-2H-[1,4']bipyridinyl-4-yl)-oxazolidin-5-ylmethyl]-piperidine-4-carboxylic acid], with less than 0.3 µM; and `O=C(O)C1CCN(CC2CN(C3CCN(c4ccnc(NCc5ccccc5)n4)CC3)C(=O)O2)CC1` (stereo not drawn) [Example 9, 1-{3-[1-(2-Benzylamino-pyrimidin-4-yl)-piperidin-4-yl]-2-oxo-oxazolidin-5-ylmethyl}-piperidine-4-carboxylic acid], with 0.07 µM.
Then `O=C(O)C1CCN(CC2CN(C3CCN(c4ccncc4)CC3)C(=O)O2)CC1` (racemic) [Example 2, 1-[(rac]-2-Oxo-3-(3,4,5,6-tetrahydro-2H-[1,4']bipyridinyl-4-yl)-oxazolidin-5-ylmethyl]-piperidine-4-carboxylic acid], with less than 0.3 µM; and `C[C@]1(CN2CCC(C(=O)O)CC2)CN(C2CCN(c3ccncc3)CC2)C(=O)O1` [No. 78, (5S)-1-[5-Methyl-2-oxo-3-(3,4,5,6-tetrahydro-2H-[1,4']bipyridinyl-4-yl)-oxazolidin-5-ylmethyl]-piperidine-4-carboxylic acid], with 0.6 µM; and `O=C(O)CC1(O)CCN(CC2CN(C3CCN(c4ccncc4)CC3)C(=O)O2)CC1` (stereo not drawn) [Example 5, {4-Hydroxy-1-[2-oxo-3-(3,4,5,6-tetrahydro-2H-[1,4']bipyridinyl-4-yl)-oxazolidin-5-ylmethyl]-piperidin-4-yl}acetic acid], with 1 µM.
For the molecule `O=C(O)C1CCN(CC2OC(=O)N(C3CCN(c4ccncc4)CC3)C2c2cccc(C(F)(F)F)c2)CC1` (stereo not drawn) [No. 79, 1-[2-Oxo-3-(3,4,5,6-tetrahydro-2H-[1,4']bipyridinyl-4-yl)-4-(3-trifluoromethylphenyl)-oxazolidin-5-ylmethyl]-piperidine-4-carboxylic acid], the concentration for half-maximal inhibition (IC50) (usually the midpoint of a concentration-inhibition curve) is 1.3 µM.
The same measure for `O=C(O)C1CCN(C[C@H]2CN(C3CCN(c4ccncc4)CC3)C(=O)O2)CC1` [Example 1, 1-[(5S)-2-oxo-3-(3,4,5,6-tetrahydro-2H-[1,4']bipyridinyl-4-yl)-oxazolidin-5-ylmethyl]-piperidine-4-carboxylic acid]: less than 0.3 µM.
Then `O=C(O)C1CCN(CC2OC(=O)N(C3CCN(c4ccncc4)CC3)C2c2ccc(Cl)cc2)CC1` (stereo not drawn) [No. 80, 1-[4-(4-Chlorophenyl)-2-oxo-3-(3,4,5,6-tetrahydro-2H-[1,4']bipyridinyl-4-yl)-oxazolidin-5-ylmethyl]-piperidine-4-carboxylic acid], with 0.5 µM; and `O=C(O)C1CCC(O)(CC2CN(C3CCN(c4ccncc4)CC3)C(=O)O2)CC1` (stereo not drawn) [10 c)], with less than 0.3 µM.
The same measure for `O=C(O)C1CCN(CC2CN(C3CCN(c4ccncn4)CC3)C(=O)O2)CC1` (stereo not drawn) [Example 8, 1-[2-Oxo-3-(1-pyrimidin-4-yl-piperidin-4-yl)-oxazolidin-5-ylmethyl]-piperidine-4-carboxylic acid]: 0.3 µM.
